Assay results reported in patent US8735650B2, “Methods of modulating production of phenylpropanoid compounds in plants” (Yissum Research Development Company of the Hebrew …, priority 2007, dated 2014).

Columns and labels:
[1] = tested on: control petunia flowers; test: Phe feeding, volatile emission by dynamic headspace GC-MS; assay type: in vivo, Petunia hybrida; details: during the night
Description: (§1) Volatiles emitted from detached petunia flowers were collected using an adsorbent trap consisting of a glass tube containing 200 mg of polymer Porapak Type Q (80/100 mesh; Alltech, Deerfield, Ill.) held in place with plugs of silanized glass wool (Guterman et al., 2006). Trapped volatiles were eluted using 3 ml hexane, and 2 μg iso-butylbenzene was added per sample as an internal standard for each. To determine pool sizes of volatile compounds, limbs were ground in liquid nitrogen and extracted in hexane (4 ml g^−1 of tissue) containing 0.5 μg ml^−1 iso-butylbenzene as the internal standard. Following overnight incubation with shaking at 150 rpm, extract was centrifuged at 10,500 g for 10 min and the supernatant filtered through a 25-ml syringe with a […] sterile nylon filter. To assess whether the bound form of benzaldehyde accumulated in petunia limbs, tissue (0.6 g) was incubated with 9 ml phosphate citrate buffer pH 4.5 with or without 15 units of glucosidase mixture Novarom G (Novo Nordisk Ferment Ltd., Bagsvaerd, Denmark) at 37° C. overnight, and then transferred to −20° C. to stop enzymatic reactions. Hexane (10 ml) containing 0.5 μg ml^−1 iso-butylbenzene as an internal standard was added to each sample, and following vortexing, the upper phase was recovered.
(§2) GC-MS analysis was performed using a device composed of a Pa1 auto-sampler (CTC Analytic, Zwingen, Switzerland), a TRACE GC 2000 equipped with an Rtx-5SIL MS (Restek, i.d. 0.25 μm, 30 m×0.25 mm) fused-silica capillary column, and a TRACE DSQ quadrupole mass spectrometer (ThermoFinnigan, Hemel, UK). Helium was used as the carrier gas at a flow rate of 0.9 ml min^−1. The injection temperature was set to 250° C. (splitless mode), the interface to 280° C., and the ion source adjusted to 200° C. The analysis was performed under the following temperature program: 5 min of isothermal heating at 50° C., followed by a 5° C. min^−1 oven temperature ramp to […], and a final increase from 250 to 280° C. at 10° C. min^−1. The transfer line temperature was 280° C. The system was equilibrated for 1 min at 70° C. before injection of the next sample. Mass spectra were recorded at 2 scan s^−1 with a scanning range of 40 to 450 mass-to-charge ratio, and an electron energy of 70 eV. Compounds were tentatively identified (>95% match) based on NIST/EPA/NIH Mass Spectral Library (Data Version: NIST 05, Software Version 2.0d) using the XCALIBUR v1.3 program (ThermoFinnigan) library. Further identification of compounds was based on comparison of mass spectra and retention times with those of authentic standards (Sigma, Milwaukee, Wis.) analyzed under similar conditions.
(§3) For evaluating the affect of Phe feeding on volatile production, control and Pap1-transgenic flowers were collected at 0800 hour and 1600 hour, placed in a glass vial containing 10 ml of water with or without 5 mg L-phenylalanine (Duchefa, Haarlem, Netherlands) and headspace was collected during the day (0800-1600 hours) and night (1600-0800 hours). To assess internal pools of volatiles, control and Pap1-transgenic flowers collected at 1600 hour were placed in a glass vial containing 10 ml of water with or without L-phenylalanine and at 2300 hour volatile were extracted as above.

[2] = tested on: Pap1-transgenic petunia flowers; test: as above; assay type: in vivo, Petunia hybrida
Description: as §1, §2, §3

[3] = Phe fed vs non-fed Pap1-transgenic flowers, during the day

## N[C@@H](Cc1ccccc1)C(=O)O [Phe, L-phenylalanine]
[1]
  reduction in benzaldehyde emission: 2-3 fold
  reduction in methylbenzoate emission: 2-3 fold
[2]; Pap1-transgenic flowers, Phe feeding during the night
  volatile accumulation and emission: unaffected
[2]; [3]
  increase in benzaldehyde emission: about 7 fold
  increase in methylbenzoate emission: ~5 fold
